This note sets out measurements from ChEMBL document CHEMBL3400000, “The discovery of potent agonists for GPR88, an orphan GPCR, for the potential treatment of CNS disorders” (Bioorg Med Chem Lett, 2015).

In this experiment the target is G protein-coupled receptor 88 (Homo sapiens, UniProt Q9GZN0). Briefly: Agonist activity at GPR88 (unknown origin) transfected into cells assessed as cAMP accumulation by HTRF assay. Format: functional. (In general: Changes in cAMP serve as a functional read-out for many G protein-coupled receptors.)
Sequence of G protein-coupled receptor 88 (Q9GZN0 whole entry): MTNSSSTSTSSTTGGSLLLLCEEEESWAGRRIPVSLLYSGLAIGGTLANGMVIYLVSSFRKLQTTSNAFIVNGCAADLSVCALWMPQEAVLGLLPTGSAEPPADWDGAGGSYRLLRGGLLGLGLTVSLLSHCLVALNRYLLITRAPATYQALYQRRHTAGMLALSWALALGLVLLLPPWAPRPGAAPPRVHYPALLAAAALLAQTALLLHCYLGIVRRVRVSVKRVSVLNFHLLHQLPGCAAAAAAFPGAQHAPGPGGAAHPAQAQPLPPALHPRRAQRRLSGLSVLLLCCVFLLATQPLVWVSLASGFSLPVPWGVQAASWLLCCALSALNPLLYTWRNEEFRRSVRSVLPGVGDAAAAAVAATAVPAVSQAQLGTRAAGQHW
By EC50 is commonly meant the concentration that produces a half-maximal response. Take `CC[C@H](C)[C@H](N)CN(C(=O)[C@@H]1C[C@H]1c1ccc(OC)cc1)c1ccc(-c2ccccc2)cc1`: the EC50 was above 25000 nM.

Consider `N[C@H](CN(C(=O)[C@@H]1C[C@H]1c1ccccc1)c1ccc(-c2ccccc2)cc1)c1ccccc1`, for which the EC50 is 4.7 nM.

Regarding `CC(C)[C@H](N)CN(C(=O)[C@@H]1C[C@H]1c1ccccc1)c1ccc(-c2ccccc2)cc1`, the EC50 was 1.1 nM.

In the case of `CO[C@H](C)[C@H](N)CN(C(=O)[C@@H]1C[C@H]1c1ccccc1)c1ccc(-c2ccccc2)cc1`, the 50% effective concentration (EC50) was 0.68 nM.

In the case of `NC1(CN(C(=O)[C@@H]2C[C@H]2c2ccccc2)c2ccc(-c3ccccc3)cc2)CCCC1`, the EC50 came to 0.57 nM.

In the case of `CC(C)(N)CN(C(=O)[C@@H]1C[C@H]1c1ccccc1)c1ccc(-c2ccccc2)cc1`, the EC50 worked out at 1.4 nM.

On to `CC(C)(C)[C@H](N)CN(C(=O)[C@@H]1C[C@H]1c1ccccc1)c1ccc(-c2ccccc2)cc1`, for which the EC50 was 11 nM.

As to `O=C([C@@H]1C[C@H]1c1ccccc1)N(CC1CCCNC1)c1ccc(-c2ccccc2)cc1` (stereo partly specified), the EC50 is 10 nM.

For `CC(C)C[C@H](N)CCN(C(=O)[C@@H]1C[C@H]1c1ccccc1)c1ccc(-c2ccccc2)cc1`, the EC50 amounted to 3 nM.

`CCC(CC)C(N)CCN(C(=O)[C@@H]1C[C@H]1c1ccccc1)c1ccc(-c2ccccc2)cc1` (stereo partly specified): the EC50 amounted to 2 nM.

Take `CC(C)CCNCCN(C(=O)[C@@H]1C[C@H]1c1ccccc1)c1ccc(-c2ccccc2)cc1`: the EC50 amounted to 5.1 nM.

On to `CCC(C)CNCCN(C(=O)[C@@H]1C[C@H]1c1ccccc1)c1ccc(-c2ccccc2)cc1` (stereo partly specified), for which the EC50 stood at 4.7 nM.

With `O=C([C@@H]1C[C@H]1c1ccccc1)N(CCNCC1CCCCC1)c1ccc(-c2ccccc2)cc1`, the half-maximal effective concentration (EC50) amounted to 6.6 nM.

Regarding `O=C([C@@H]1C[C@H]1c1ccccc1)N(CCNCC1CCCC1)c1ccc(-c2ccccc2)cc1`, the EC50 worked out at 2.5 nM.

In the case of `CC[C@H](C)[C@H](N)CN(C(=O)[C@@H]1C[C@H]1c1ccc(Cl)cc1)c1ccc(-c2ccccc2)cc1`, the EC50 was 4300 nM.

With `CC[C@H](C)[C@H](N)CN(C(=O)[C@@H]1C[C@H]1c1cccc(Cl)c1)c1ccc(-c2ccccc2)cc1`, the EC50 amounted to 2200 nM.

In the case of `CC[C@H](C)[C@H](N)CN(C(=O)[C@@H]1C[C@H]1c1ccccc1Cl)c1ccc(-c2ccccc2)cc1`, the EC50 is above 25000 nM.

Regarding `CC[C@H](C)[C@H](N)CN(C(=O)[C@@H]1C[C@H]1c1cccc(OC)c1)c1ccc(-c2ccccc2)cc1`, the half-maximal effective concentration (EC50) was found to be 3000 nM.

Regarding `CC[C@H](C)[C@H](N)CN(C(=O)[C@@H]1C[C@H]1c1ccc(F)cc1)c1ccc(-c2ccccc2)cc1`, the 50% effective concentration (EC50) was 600 nM.

As to `CC[C@H](C)[C@H](N)CN(C(=O)[C@@H]1C[C@H]1c1cccc(F)c1)c1ccc(-c2ccccc2)cc1`, the EC50 amounted to 560 nM.

For `CC[C@H](C)[C@H](N)CN(C(=O)[C@@H]1C[C@H]1c1ccccc1F)c1ccc(-c2ccccc2)cc1`, the concentration giving a half-maximal response (EC50) turned out to be 650 nM.

Regarding `CC(C)C[C@H](N)CN(C(=O)C(C)Cc1ccccc1)c1ccc(-c2ccccc2)cc1` (stereo partly specified), the EC50 was determined as 1.2 nM.

On to `CC(C)CCCN(C(=O)[C@@H]1C[C@H]1c1ccccc1)c1ccc(-c2ccccc2)cc1`, for which the half-maximal effective concentration (EC50) was above 100 nM.

As to `CC(C)C[C@@H](N)CN(C(=O)[C@@H]1C[C@H]1c1ccccc1)c1ccc(-c2ccccc2)cc1`, the EC50 came to 1.8 nM.

On to `CN[C@@H](CC(C)C)CN(C(=O)[C@@H]1C[C@H]1c1ccccc1)c1ccc(-c2ccccc2)cc1`, for which the EC50 amounted to 2 nM.

Take `CC[C@H](C)[C@@H](CN(C(=O)[C@@H]1C[C@H]1c1ccccc1)c1ccc(-c2ccccc2)cc1)NC(C)=O`: the 50% effective concentration (EC50) was determined as 5.8 nM.

Turning to `CC[C@@H](C)[C@H](N)CN(C(=O)[C@@H]1C[C@H]1c1ccccc1)c1ccc(-c2ccccc2)cc1`, the half-maximal effective concentration (EC50) was found to be 1.4 nM.

As for `N[C@@H](CC1CCCCC1)CN(C(=O)[C@@H]1C[C@H]1c1ccccc1)c1ccc(-c2ccccc2)cc1`, the EC50 was 1.7 nM.

With `N[C@H](CN(C(=O)[C@@H]1C[C@H]1c1ccccc1)c1ccc(-c2ccccc2)cc1)C1CCCCC1`, the EC50 was 0.66 nM.

For the molecule `CC[C@H](C)[C@H](N)CN(C(=O)[C@@H]1C[C@H]1c1ccccc1)c1ccc(-c2ccccc2)cc1` (racemic), the EC50 is 800 nM.

Regarding `CC(C)C[C@H](N)CN(C(=O)[C@@H]1C[C@H]1c1ccccc1)c1ccc(-c2ccccc2)cc1` (racemic), the EC50 came to 880 nM.
